Reference: PubChem BioAssay AID1259407 (Chemical Carcinogenesis Research Information System (CCRIS), 2018)
Active and inactive are the calls of the source. How the calls were made is not given here.

Test system: CCRIS mutagenicity, Ames/micronucleus/aberration tests
Test: CCRIS mutagenicity studies
[1] = Test System: AMES SALMONELLA TYPHIMURIUM, Strain/Indicator: TA98, Metabolic Activation: NONE, Method: PREINCUBATION
[2] = Test System: AMES SALMONELLA TYPHIMURIUM, Strain/Indicator: TA100, Metabolic Activation: NONE, Method: PREINCUBATION

Measured: mutagenic call

O=C(O)C(Cl)(Cl)Cl
inactive: End Point: IN VIVO MICRONUCLEUS, Test System: BONE MARROW POLYCHROMATIC ERYTHROCYTES, Species: MOUSE, Strain/Sex: C57BL/6JFBL10/ALPK/FEMALE, Route: IP INJECTION 2 TIMES AT 24 HR INTERVAL inactive; negative | End Point: IN VIVO MICRONUCLEUS, Test System: BONE MARROW POLYCHROMATIC ERYTHROCYTES, Species: MOUSE, Strain/Sex: C57BL/6JFBL10/ALPK/MALE, Route: IP INJECTION 2 TIMES AT 24 HR INTERVAL inactive; negative; a statistically significant increase was observed at 675 mg/kg after 2 | Test System: AMES SALMONELLA TYPHIMURIUM, Strain/Indicator: RSJ100, Metabolic Activation: NONE, Method: PREINCUBATION inactive; negative | Test System: AMES SALMONELLA TYPHIMURIUM, Strain/Indicator: RSJ100, Metabolic Activation: RAT LIVER S-9, Method: PREINCUBATION inactive; negative | [1] inactive; negative | Test System: AMES SALMONELLA TYPHIMURIUM, Strain/Indicator: TA98, Metabolic Activation: RAT LIVER S-9, Method: PREINCUBATION inactive; negative | Test System: AMES SALMONELLA TYPHIMURIUM, Strain/Indicator: TA98, Metabolic Activation: RAT, LIVER, S-9, PHENOBARBITAL AND 5,6-BENZOFLAVONE, Method: PREINCUBATION inactive; negative | Test System: AMES SALMONELLA TYPHIMURIUM, Strain/Indicator: TA100, Metabolic Activation: NONE, Method: BAG VAPORIZATION inactive; negative | [2] inactive; negative | Test System: AMES SALMONELLA TYPHIMURIUM, Strain/Indicator: TA100, Metabolic Activation: RAT LIVER S-9, Method: PREINCUBATION inactive; negative | Test System: AMES SALMONELLA TYPHIMURIUM, Strain/Indicator: TA100, Metabolic Activation: RAT, LIVER, S-9, AROCLOR 1254, Method: BAG VAPORIZATION inactive; negative | Test System: AMES SALMONELLA TYPHIMURIUM, Strain/Indicator: TA100, Metabolic Activation: RAT, LIVER, S-9, PHENOBARBITAL AND 5,6-BENZOFLAVONE, Method: PREINCUBATION inactive; negative | Test System: AMES SALMONELLA TYPHIMURIUM, Strain/Indicator: TA102, Metabolic Activation: NONE, Method: STANDARD PLATE inactive; negative | Test System: AMES SALMONELLA TYPHIMURIUM, Strain/Indicator: TA102, Metabolic Activation: RAT LIVER S-9, AROCLOR 1254, Method: STANDARD PLATE inactive; negative
active: Test System: AMES SALMONELLA TYPHIMURIUM, Strain/Indicator: TA100, Metabolic Activation: NONE, Method: FLUCTUATION TEST active; positive | Test System: AMES SALMONELLA TYPHIMURIUM, Strain/Indicator: TA100, Metabolic Activation: RAT, LIVER, S-9, AROCLOR 1254, Method: FLUCTUATION TEST active; positive | Test System: MOUSE LYMPHOMA, Strain/Indicator: L5178Y (TK+/TK- -3.7.2C), Metabolic Activation: S-9 active; positive

O=C(Nc1ccc2c(c1)C=C(S(=O)(=O)O)/C(=N/Nc1ccc(N=Nc3ccc(S(=O)(=O)O)cc3)cc1S(=O)(=O)O)C2=O)Nc1ccc2c(c1)C=C(S(=O)(=O)O)/C(=N/Nc1ccc(N=Nc3ccc(S(=O)(=O)O)cc3)cc1S(=O)(=O)O)C2=O
inactive: Test System: MOUSE LYMPHOMA, Strain/Indicator: L5178Y (TK+/TK-), Metabolic Activation: NONE, Method: SUSPENSION/PLATE inactive; negative. reevaluation of results: negative | Test System: MOUSE LYMPHOMA, Strain/Indicator: L5178Y (TK+/TK-), Metabolic Activation: RAT, LIVER, S-9, AROCLOR 1254, Method: SUSPENSION/PLATE inactive; negative. reevaluation of results: negative

CC(C(=O)O)c1ccc2c(c1)[nH]c1ccc(Cl)cc12 (configuration not stated)
inactive: Test System: AMES SALMONELLA TYPHIMURIUM, Strain/Indicator: TA98, Metabolic Activation: RAT, LIVER, S-9, PCB, Method: STANDARD PLATE inactive; negative | Test System: AMES SALMONELLA TYPHIMURIUM, Strain/Indicator: TA100, Metabolic Activation: RAT, LIVER, S-9, PCB, Method: STANDARD PLATE inactive; negative | Test System: AMES SALMONELLA TYPHIMURIUM, Strain/Indicator: TA1537, Metabolic Activation: RAT, LIVER, S-9, PCB, Method: STANDARD PLATE inactive; negative | Test System: AMES SALMONELLA TYPHIMURIUM, Strain/Indicator: TA1538, Metabolic Activation: RAT, LIVER, S-9, PCB, Method: STANDARD PLATE inactive; negative | Test System: E. COLI, Strain/Indicator: WP2 UVRA, Metabolic Activation: RAT, LIVER, S-9, PCB, Method: STANDARD PLATE inactive; negative

Cc1ccsc1
inactive: [1] inactive; negative | Test System: AMES SALMONELLA TYPHIMURIUM, Strain/Indicator: TA98, Metabolic Activation: RAT, LIVER, S-9, AROCLOR 1254, Method: PREINCUBATION inactive; negative | [2] inactive; negative | Test System: AMES SALMONELLA TYPHIMURIUM, Strain/Indicator: TA100, Metabolic Activation: RAT, LIVER, S-9, AROCLOR 1254, Method: PREINCUBATION inactive; negative | Test System: AMES SALMONELLA TYPHIMURIUM, Strain/Indicator: TA102, Metabolic Activation: NONE, Method: PREINCUBATION inactive; negative | Test System: AMES SALMONELLA TYPHIMURIUM, Strain/Indicator: TA102, Metabolic Activation: RAT, LIVER, S-9, AROCLOR 1254, Method: PREINCUBATION inactive; negative

CC1(C)Cc2cccc(O)c2O1
inactive: End Point: IN VIVO MICRONUCLEUS, Test System: BONE MARROW POLYCHROMATIC ERYTHROCYTES, Species: MOUSE, Strain/Sex: KM/MALE, FEMALE, Route: IP INJECTION inactive; negative

Cc1c2ccccc2c(CO)c2c1ccc1ccccc12
active: Test System: CHINESE HAMSTER V-79, Strain/Indicator: V-79/6-THIOGUANINE, Metabolic Activation: CELL-MEDIATED, Method: STANDARD PLATE active; positive | Test System: CHINESE HAMSTER V-79, Strain/Indicator: V-79/OUABAIN, Metabolic Activation: CELL-MEDIATED, Method: STANDARD PLATE active; positive

C/C=C1/C[C@@H](C)[C@](O)(CO)C(=O)OCC2=CC[N+]3([O-])CC[C@@H](OC1=O)[C@@H]23 (some centres not stated)
inactive: Test System: AMES SALMONELLA TYPHIMURIUM, Strain/Indicator: TA100, Metabolic Activation: RAT, LIVER, S-9, SODIUM PHENOBARBITAL AND BETA-NAPHTHOFLAVONE, Method: PREINCUBATION inactive; negative

O=C(NCc1ccccc1)C(Br)c1ccccc1 (configuration not stated)
inactive: Test System: AMES SALMONELLA TYPHIMURIUM, Strain/Indicator: TA100, Metabolic Activation: MOUSE, LIVER, S-9, AROCLOR 1254, Method: STANDARD PLATE inactive; negative | Test System: AMES SALMONELLA TYPHIMURIUM, Strain/Indicator: TA100, Metabolic Activation: NONE, Method: STANDARD PLATE inactive; negative

O=C(O)c1c(Cl)c(Cl)c(Cl)c(Cl)c1-c1c2cc(I)c(=O)c(I)c-2oc2c(I)c(O)c(I)cc12
inactive: End Point: IN VIVO MICRONUCLEUS, Test System: BONE MARROW POLYCHROMATIC ERYTHROCYTES, Species: MOUSE, Strain/Sex: DDY/MALE, Route: IP inactive; negative
